Data on 20 compounds can be found in patent publication US20240417369A1, “RXFP1 AGONISTS” (BRISTOL-MYERS SQUIBB COMPANY, priority 2021, published 2024).

One data set concerns the target T1, human RXFP1 (Homo sapiens, UniProt Q9HBX9).
T1 construct: expressed in transfected cells
T1 sequence (Q9HBX9 1-757): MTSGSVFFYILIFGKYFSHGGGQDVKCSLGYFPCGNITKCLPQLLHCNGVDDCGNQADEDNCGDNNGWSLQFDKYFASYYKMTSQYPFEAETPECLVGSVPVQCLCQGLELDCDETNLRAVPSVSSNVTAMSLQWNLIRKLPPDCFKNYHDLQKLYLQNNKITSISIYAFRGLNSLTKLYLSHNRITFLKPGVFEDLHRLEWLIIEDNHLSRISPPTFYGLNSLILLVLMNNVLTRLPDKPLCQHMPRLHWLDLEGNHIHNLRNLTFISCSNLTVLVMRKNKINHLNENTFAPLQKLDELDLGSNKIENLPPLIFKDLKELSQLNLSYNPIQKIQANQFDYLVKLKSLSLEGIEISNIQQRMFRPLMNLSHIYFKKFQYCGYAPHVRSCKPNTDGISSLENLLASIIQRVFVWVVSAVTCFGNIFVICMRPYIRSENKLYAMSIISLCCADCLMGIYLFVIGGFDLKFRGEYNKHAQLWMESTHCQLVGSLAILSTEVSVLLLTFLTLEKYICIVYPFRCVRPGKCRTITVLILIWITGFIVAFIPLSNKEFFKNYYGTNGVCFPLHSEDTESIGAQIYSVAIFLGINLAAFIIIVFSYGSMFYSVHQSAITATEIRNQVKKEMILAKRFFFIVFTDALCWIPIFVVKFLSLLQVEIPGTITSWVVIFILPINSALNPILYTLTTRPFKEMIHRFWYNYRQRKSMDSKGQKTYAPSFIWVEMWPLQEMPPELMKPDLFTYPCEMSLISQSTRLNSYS
Briefly: cAMP hRXFP1 HEK293 Assay. The following applies: HEK293 cells stably expressing human RXFP1; 30 min at room temperature; HTRF cAMP. It is filed as cell-based. As to the method:
RXFP1 Cyclic Adenosine Monophosphate (cAMP) Assays. Human embryonic kidney cells 293 (HEK293) cells and HEK293 cells stably expressing human RXFP1, were cultured in MEM medium supplemented with 10% qualified FBS, and 300 μg/ml hygromycin (Life Technologies). Cells were dissociated and suspended in assay buffer. The assay buffer was HBSS buffer (with calcium and magnesium) containing 20 mM HEPES. 0.05% BSA, and 0.5 mM IBMX. Cells (3000 cells per well, except 1500 cell per well for HEK293 cells stably expressing human RXFP1) were added to 384-well Proxiplates (Perkin-Elmer). Cells were immediately treated with test compounds in DMSO (2% final) at final concentrations in the range of 0.010 nM to 50 μM. Cells were incubated for 30 min at room temperature. The level of intracellular cAMP was determined using the HTRF HiRange cAMP assay reagent kit (Cisbio) according to manufacturer's instructions. Solutions of cryptate conjugated anti-cAMP and d2 fluorophore-labelled cAMP were made in a supplied lysis buffer separately. Upon completion of the reaction, the cells were lysed with equal volume of the d2-cAMP solution and anti-cAMP solution. After a 1 h room temperature incubation, time-resolved fluorescence intensity was measured using the Envision (Perkin-Elmer) at 400 nm excitation and dual emission at 590 nm and 665 nm. A calibration curve was constructed with an external cAMP standard at concentrations ranging from 2.7 μM to 0.1 μM by plotting the fluorescent intensity ratio from 665 nm emission to the intensity from the 590 nm emission against cAMP concentrations. The potency and activity of a compound to inhibit cAMP production was then determined by fitting to a 4-parametric logistic equation from a plot of cAMP level versus compound concentrations.
The examples disclosed below were tested in the human RXFP1 (hRXFP1) HEK293 cAMP assay described above and found to have agonist activity. Table I lists EC50 values in the hRXFP1 HEK293 cAMP assay measured for the examples.
(TR-FRET usually uses a lanthanide donor and a delayed reading to cut background.)
`O=C(N[C@H]1[C@@H](C(=O)Nc2ccc(F)c(C(F)(F)F)c2)[C@H]2CC[C@@H]1/C2=C\C(F)(F)F)C(O)c1cccc(Oc2ccccc2)c1` (stereo partly drawn) [Example 7, (1R,2S,3R,4R,Z)-N-(4-fluoro-3-(trifluoromethyl)phenyl)-3-(2-hydroxy-2-(3-phenoxyphenyl)acetamido)-7-(2,2,2-trifluoroethylidene)bicyclo [2.2.1]heptane-2-carboxamide] showed an EC50 of 3.4 µM. In other words, the single-digit micromolar range.
On the same count and under the same terms, the value for `O=C(O)c1cccc(C2CCCC(C(=O)N[C@H]3[C@@H](C(=O)Nc4ccc(F)c(C(F)(F)F)c4)[C@H]4CC[C@@H]3/C4=C\C(F)(F)F)C2)c1` (single isomer, unassigned) [Example 2] was 0.3 µM; that for `O=C(O)c1cccc(C2CCCC(C(=O)N[C@H]3[C@@H](C(=O)Nc4ccc(F)c(C(F)(F)F)c4)[C@H]4CC[C@@H]3/C4=C\C(F)(F)F)C2)c1` (single isomer, unassigned) [Example 1] was 0.93 µM; that for `O=C(N[C@@H]1C2CCC(/C2=C/C2CC2)[C@@H]1C(=O)Nc1ccc(F)c(C(F)(F)F)c1)C1CCC[C@H](C2=NOC3COCC23)C1` (single isomer, unassigned) [Example 14] was 1.6 µM.
The same measure, in the same setting: as for `O=C(N[C@H]1[C@@H](C(=O)Nc2ccc(F)c(C(F)(F)F)c2)[C@H]2CC[C@@H]1/C2=C\C1CC1)C1CCC[C@@H](C2=NOC3COCC23)C1` (single isomer, unassigned) [Example 18], the figure is 1 µM; as for `O=C(O)c1cccc(C2CCC(C(=O)N[C@H]3[C@@H](C(=O)Nc4ccc(F)c(C(F)(F)F)c4)[C@H]4CC[C@@H]3/C4=C\C(F)(F)F)C2)c1` (single isomer, unassigned) [Example 9], 0.51 µM.
Regarding `O=C(N[C@@H]1C2CCC(/C2=C/C2CC2)[C@@H]1C(=O)Nc1ccc(F)c(C(F)(F)F)c1)C1CCC[C@H](C2=NOC3COCC23)C1` (single isomer, unassigned) [Example 13], the EC50 was 2.9 µM.
For the compound `O=C(O)c1cccc(C2CCC(C(=O)NC3C4CCC(C4=CC(F)(F)F)C3C(=O)Nc3ccc(F)c(C(F)(F)F)c3)C2)c1` (single isomer, unassigned) [Example 10], the concentration for a half-maximal effect (EC50) stood at 2 µM.
On the same count and under the same terms, the value for `CO[C@H](C(=O)N[C@H]1[C@@H](C(=O)Nc2ccc(F)c(C(F)(F)F)c2)[C@H]2CC[C@@H]1/C2=C\C(F)(F)F)c1ccccc1` [Example 6, (1R,2S,3R,4R,Z)-N-(4-fluoro-3-(trifluoromethyl)phenyl)-3-((S)-2-methoxy-2-phenylacetamido)-7-(2,2,2-trifluoroethylidene)bicyclo [2.2.1]heptane-2-carboxamide] was 3.3 µM; that for `O=C(CCCCCCCO)N[C@@H]1C2CCC(/C2=C/C2CC2)C1C(=O)Nc1ccc(F)c(C(F)(F)F)c1` (stereo in doubt) [Example 5, (1R,2R,3R,4R,Z)-7-(cyclopropylmethylene)-N-(4-fluoro-3-(trifluoromethyl)phenyl)-3-(8-hydroxyoctanamido)bicyclo [2.2.1]heptane-2-carboxamide] was 1.2 µM; that for `O=C(O)c1cccc(C2CCCC(C(=O)N[C@H]3[C@@H](C(=O)Nc4ccc(F)c(C(F)(F)F)c4)[C@H]4CC[C@@H]3/C4=C\C(F)(F)F)C2)c1` (single isomer, unassigned) [Example 3] was 0.51 µM.
Still for that read-out and setting: as for `O=C(N[C@H]1[C@@H](C(=O)Nc2ccc(F)c(C(F)(F)F)c2)[C@H]2CC[C@@H]1/C2=C\C1CC1)C1CCC[C@@H](C2=NOC3COCC23)C1` (single isomer, unassigned) [Example 17], the figure is 1.6 µM.
Consider `O=C(O)c1cccc(C2CCC(C(=O)N[C@H]3[C@@H](C(=O)Nc4ccc(F)c(C(F)(F)F)c4)[C@H]4CC[C@@H]3/C4=C\C(F)(F)F)CC2)c1` (some centres unmarked) [Example 11], for which the midpoint of the response, the EC50, lay at 4.3 µM. Against the preceding compound, the EC50 is about 2.7-fold higher.
For `O=C(N[C@H]1[C@@H](C(=O)Nc2ccc(F)c(C(F)(F)F)c2)[C@H]2CC[C@@H]1/C2=C\C1CC1)C1CCC[C@@H](C2=NOC3COCC23)C1` (single isomer, unassigned) [Example 19], a half-maximal effect (EC50) was put at 2 µM.
Still for that read-out and setting: as for `O=C(N[C@H]1[C@@H](C(=O)Nc2ccc(F)c(C(F)(F)F)c2)[C@H]2CC[C@@H]1/C2=C\C1CC1)C1CCC[C@@H](C2=NOC3COCC23)C1` (stereo partly drawn) [Example 16, (1R,2S,3R,4R,7Z)-3-[(3R)-3-{3aH,4H,6H,6aH-furo[3,4-d][1,2]oxazol-3-yl}cyclohexaneamido]-7-(cyclopropylmethylidene)-N-[4-fluoro-3-(trifluoromethyl)phenyl]bicyclo [2.2.1]heptane-2-carboxamide], the figure is 1 µM; as for `COc1ccc(Cl)cc1NC(=O)N[C@H]1[C@@H](C(=O)Nc2ccc(F)c(C(F)(F)F)c2)[C@H]2CC[C@@H]1/C2=C\C(F)(F)F` [Example 4, (1R,2S,3R,4R,Z)-3-(3-(5-chloro-2-methoxyphenyl)ureido)-N-(4-fluoro-3-(trifluoromethyl)phenyl)-7-(2,2,2-trifluoroethylidene)bicyclo[2.2.1]heptane-2-carboxamide], 3.8 µM.
On the same count and under the same terms, as for `O=C(O)CCCCCCC(=O)N[C@H]1[C@@H](C(=O)Nc2ccc(F)c(C(F)(F)F)c2)[C@H]2CC[C@@H]1/C2=C\C1CC1` [Example 8, 8-(((1R,2R,3S,4R,Z)-7-(cyclopropylmethylene)-3-((4-fluoro-3-(trifluoromethyl)phenyl)carbamoyl)bicyclo[2.2.1]heptan-2-yl)amino)-8-oxooctanoic acid], the figure is 4.7 µM; as for `O=C(N[C@@H]1C2CCC(/C2=C/C2CC2)[C@@H]1C(=O)Nc1ccc(F)c(C(F)(F)F)c1)C1CCC[C@H](C2=NOC3COCC23)C1` (single isomer, unassigned) [Example 15], 1.4 µM; as for `O=C(NC1C2CCC(/C2=C/C2CC2)[C@@H]1C(=O)Nc1ccc(F)c(C(F)(F)F)c1)C1CCC[C@H](C2=NOC3COCC23)C1` (single isomer, unassigned) [Example 12], 0.35 µM.

System in another data set: not given
Test: not given
The conditions noted are these: intravenous (IV) formulation; cited from earlier work.
Consider Serelaxin, for which the first-phase pharmacokinetic half-life was 5.4 min.

The EC50 is the concentration that produces a half-maximal response.
